{"source": "patent EP2018861A1", "about": "“5HT6-Ligands such as sulfonamide derivatives in drug-induced weight-gain” (Laboratorios del Dr. Esteve S.A., priority 2007, dated 2009)", "key": {"[1]": {"biological_target": "human variant of the 5-HT6 receptor (Homo sapiens, UniProt P50406)", "conditions": "Romero et al, 2006; cited from earlier work"}, "[2]": {"test": "Feeding study: olanzapine-induced weight-gain and hyperphagia in rats on a high-fat diet", "assay_type": "in vivo, female Sprague-Dawley rats", "conditions": "olanzapine 3 mg/kg po; for Mean body weight (g) Day 15: after 14 days of treatment, high-fat diet; for Mean body weight (g) Day 15 / Mean body weight (g) Day 0: n=10; for Mean body weight (g) Day 0: before treatment (baseline)", "description": "The experiment was performed on 40 female Sprague-Dawley rats (originally in the weight range 250-300 g). The animal room was maintained at a temperature of 21±4°C and 55±20% humidity and on a reversed phase light-dark cycle (lights off for 8 h from 09.30-17.30 h) during which time the room was illuminated by red light. Animals had free access to powdered high fat diet (VRF1 plus 20% lard). The diet was contained in a glass feeding jar with an aluminium lid with a 3-4 cm hole cut in it to allow access to the food. Animals were housed singly in polypropylene cages with wire grid floors to enable the food intake of each rat to be recorded. Polypropylene trays containing cage pads were placed beneath each cage to detect any food spillage. Animals were accustomed to these new conditions (individual housing and the wire-grid floor cages) for at least 14 days before the start of the baseline readings.\nApproximately a week before the start of the study, animals were weighed (to the nearest 0.1 g using an electronic top-pan balance) and allocated into 4 weight-matched treatment groups, each containing 10 animals. Following a 7 day baseline run-in period, during which the animals were dosed orally with vehicle (0.5% hydroxypropylmethylcellulose), to acclimatise them to dosing/handling, the rats were given treatments, described in the Table below, for 14 days.\nFood intake and body weight were measured once daily. Variations in body weight were accounted for by expressing the food intake results in terms of g/kg rat weight.\n(§1) Statistical comparisons between the body weights of the different treatment groups were made by analysis of covariance followed by multiple t tests (two-tailed) to compare each treatment group with the vehicle-treated controls. For the body weight data (body weights recorded each day), the weights of the animals on Day 1 (ie immediately before the first drug treatment) were used as the covariate. Thus, means were adjusted for differences in body weight between the groups on Day 1 and standard errors of the mean (SEM) were calculated from the residuals of the statistical model. All mean body weight values on Day 1 are identical (and SEM are therefore zero) because the analysis of covariance adjusts them all to equal the 'grand mean' of the values of this day.\nStatistical comparisons between the food intakes of the different treatment groups were made by analysis of covariance followed by multiple t tests (two-tailed) to compare each treatment group with the vehicle-treated controls. Food intake of the animals at baseline (ie average of Day -6 to Day 0) was used as the covariate. Standard errors of the mean (SEM) were calculated from the residuals of the statistical model.\nAnalysis of body weights and average daily food intakes were also performed to analyse cumulative food intake and body weight changes. Analysis of covariance followed by post-hoc Student's t-test (two-tailed) was used to compare the average daily food intakes over Week 1 and Week 2 for COMPOUND 1 treatment group versus (a) the vehicle-treated and (b) the olanzapine-treated groups of rats. The body weights of all groups of rats before and after treatment were statistically compared pair-wise using Student's paired t-test (two-tailed)."}, "[3]": {"biological_target": "rat variant of the 5-HT6 receptor (Rattus norvegicus, UniProt P31388)", "conditions": "Romero et al, 2006; cited from earlier work"}, "[4]": {"test": "Feeding study in dietary-induced obese (DIO) rats, comparison with sibutramine", "assay_type": "in vivo, female Wistar rats", "conditions": "for body weight compared with the vehicle-treated controls / daily food intake: 28 days; for body weight compared with the vehicle-treated controls / daily food intake / days on which the decreases of food intake were statistically significant versus the vehicle-treated control group / weighed less than the vehicle-treated controls: COMPOUND 1 30 mg/kg po bid; for body weight compared with the vehicle-treated controls: sibutramine 5 mg/kg/day po once daily (Figure 4); for daily food intake: sibutramine 5 mg/kg/day po once daily (Figure 5); for days on which the decreases of food intake were statistically significant versus the vehicle-treated control group / weighed less than the vehicle-treated controls: sibutramine 5 mg/kg/day po; for weighed less than the vehicle-treated controls: end of treatment period (Day 28); for weight reductions: over the 28 daily treatment period, DIO rat (Figure 4)", "description": "The experiment was performed on female Wistar rats (originally in the weight range 250-300 g). The rats were housed in pairs in polypropylene cages with solid floors and sawdust bedding at a temperature of 21±4°C and 55±20% humidity. Animals were maintained on a reverse phase light-dark cycle (lights off for 8 h from 09.30-17.30 h) during which time the room was illuminated by red light. Animals had free access to powdered high fat diet (VRF1 plus 20% lard), ground chocolate, ground peanuts and tap water at all times. The three different diets were contained in separate glass feeding jars with aluminum lids with a 3-4 cm hole cut in them to allow access to the food. Animals were housed in pairs for twelve weeks for the induction of obesity. Animals were then housed singly in polypropylene cages with wire grid floors to enable the food intake of each rat to be recorded. Polypropylene trays with cage pads were placed beneath each cage to detect any food spillage. Animals were accustomed to these new conditions (individual housing and the wire-grid floor cages) for at least 14 days before the start of the baseline readings.\nAt the start of the first DIO study, animals were weighed (to the nearest 0.1 g using an electronic top-pan balance) and allocated into 3 weight-matched treatment groups, each containing 10 animals. Following a 7 day baseline run-in period, during which time all animals were dosed orally once a day with vehicle (0.5% hydroxypropylmethylcellulose), rats were dosed for 28 days with vehicle at 0 and 6 h or test compound either COMPOUND 1 (30 mg/kg, p.o., twice a day at 0 and 6 h) or sibutramine (5 mg/kg, p.o. at 0 h / vehicle p.o. at 6 h). The first compound dose was given at the onset of the 8 h dark period (0 h). This strategy was taken to maximise the impact of any inhibitory effect of the compounds on food intake as rats are predominantly nocturnal feeders. Six hours later, animals were dosed again with either vehicle or compounds.\nFood intake and body weight were measured once daily. Variations in body weight and energy levels of the different types of food were accounted for by expressing the food intake results in terms of kJ/kg rat weight.\nas §1, with “body weights and daily food intakes of the” for “body weights of the”, “treatment groups have been made by” for “treatment groups were made by”, “followed by Dunnett's test to compare” for “followed by multiple t tests (two-tailed) to compare”, “(body weights each day),” for “(body weights recorded each day),”"}, "human 5-HT6 receptors": {"biological_target": "T1, human 5-HT6 receptors (Homo sapiens, UniProt P50406)", "T1 construct": "purchased Perkin-Elmer; host or cells: HEK-293 (stably transfected), membranes", "T1 sequence (P50406 whole entry)": "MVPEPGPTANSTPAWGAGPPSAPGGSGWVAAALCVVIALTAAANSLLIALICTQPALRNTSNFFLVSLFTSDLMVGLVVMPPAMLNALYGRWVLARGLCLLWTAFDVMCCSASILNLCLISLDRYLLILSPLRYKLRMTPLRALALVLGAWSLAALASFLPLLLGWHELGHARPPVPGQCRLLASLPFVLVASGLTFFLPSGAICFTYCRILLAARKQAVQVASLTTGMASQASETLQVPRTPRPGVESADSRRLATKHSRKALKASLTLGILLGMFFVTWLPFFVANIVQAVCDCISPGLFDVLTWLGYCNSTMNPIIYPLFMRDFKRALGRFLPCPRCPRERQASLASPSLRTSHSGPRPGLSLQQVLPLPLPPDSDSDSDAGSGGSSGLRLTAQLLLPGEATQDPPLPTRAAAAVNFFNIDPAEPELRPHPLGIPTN", "test": "Radiolabelled ligand-receptor binding ([3H]-LSD) on cloned/transfected human 5-HT6 receptors", "conditions": "equated from the pKi value", "description": "To investigate the binding properties of 5-HT6 receptor ligands to human 5-HT6 receptors, transfected HEK-293 membranes from Perkin-Elmer and [3H]-LSD (NEN), as the radioligand, were used. The assay was carried out in 96-well plates with a total reaction volume of 200 µl, containing 100 µl of membrane suspension (35 µg protein/well), 10 µl of [3H]-LSD (2.7 nM) in either the absence or presence of 90 µl of either buffer or methiothepin (5 µM) for total and non-specific binding, respectively. Binding buffer contained 50 mMTris-HCl, 10 mM MgCl2 and 0.5 mM EDTA at pH 7.4. Plates were incubated at 37 °C for 60 minutes. After the incubation period, 170 µl of incubate were transferred to MultiScreen HTS, FC plates (Millipore), filtered and plates were washed 3 times with ice-cold 50mM Tris-HCl (pH 7.4). Filters were dried and counted at approximately 40% efficiency in a MicroBeta scintillation counter (Perkin-Elmer) using 25 µl per well of EcoScint liquid scintillation cocktail."}, "5-HT6 receptors": {"biological_target": "5-HT6 receptors (Rattus norvegicus, UniProt P31388)", "sequence (P31388 whole entry)": "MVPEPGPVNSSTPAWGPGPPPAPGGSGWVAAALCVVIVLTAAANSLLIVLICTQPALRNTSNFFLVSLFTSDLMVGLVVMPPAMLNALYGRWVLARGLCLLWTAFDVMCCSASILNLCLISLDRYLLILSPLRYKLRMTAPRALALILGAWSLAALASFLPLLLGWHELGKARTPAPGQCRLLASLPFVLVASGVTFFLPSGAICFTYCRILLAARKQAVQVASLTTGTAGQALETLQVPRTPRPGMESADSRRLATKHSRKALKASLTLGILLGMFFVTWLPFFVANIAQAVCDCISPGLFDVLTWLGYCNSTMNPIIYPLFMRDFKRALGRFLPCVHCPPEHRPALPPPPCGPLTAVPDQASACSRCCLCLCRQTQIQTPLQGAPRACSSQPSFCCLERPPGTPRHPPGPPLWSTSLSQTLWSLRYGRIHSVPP", "conditions": "Roth et al, 1994; cited from earlier work"}, "[5]": {"conditions": "repeated sibutramine administration, 14 days (Figure 7); cited from earlier work"}, "[6]": {"conditions": "5-HT6 antagonists; Svartengren et al, 2004; Shacham et al, 2006; cited from earlier work"}}}
{"molecule": "CN(C)CCc1c[nH]c2ccc(NS(=O)(=O)c3ccc4c(Cl)cccc4c3)cc12", "note": "[COMPOUND 1, 5-Chloro-naphthalene-2-sulfonic acid [3-(2-dimethylamino-ethyl)-1H-indol-5-yl]-amide]", "values": [{"measurement": "functionality at the 5-HT6 receptor", "setting": "[1]", "result": "agonist"}, {"measurement": "body weight compared to the vehicle + vehicle-treated control", "setting": "[2]; 14 days, COMPOUND 1 30 mg/kg po bid, high-fat diet (Figure 1)", "result": "gradual decrease in body weight"}, {"measurement": "daily food intake compared to the vehicle-treated controls", "setting": "[2]; 14 days, COMPOUND 1 30 mg/kg po bid, high-fat diet (Figure 2)", "result": "markedly reduced their food intakes"}, {"measurement": "cumulative intake of food over the first week compared to the vehicle controls", "setting": "[2]; Week 1, COMPOUND 1 30 mg/kg po bid (Figure 3)", "result": "statistically lower (p < 0.001)"}, {"measurement": "Mean body weight (g) Day 15", "setting": "[2]; COMPOUND 1 30 mg/kg po bid", "result": "289.5 ± 6.1", "unit": "g"}, {"measurement": "Mean body weight (g) Day 0", "setting": "[2]; COMPOUND 1 30 mg/kg po bid", "result": "292.8 ± 7.2", "unit": "g"}, {"measurement": "functionality at the 5-HT6 receptor", "setting": "[3]", "result": "agonist"}, {"measurement": "body weight compared with the vehicle-treated controls", "setting": "[4]", "result": "marked and sustained decrease in the body weights"}, {"measurement": "daily food intake", "setting": "[4]", "result": "reduction in daily food intake"}, {"measurement": "days on which the decreases of food intake were statistically significant versus the vehicle-treated control group", "setting": "[4]", "result": "Day 2 to Day 8"}, {"measurement": "weighed less than the vehicle-treated controls", "setting": "[4]", "result": 15.6, "unit": "%"}, {"measurement": "weight reductions", "setting": "[4]", "result": "greater than 10%"}, {"measurement": "Ki", "setting": "human 5-HT6 receptors", "result": 0.74, "unit": "nM"}]}
{"molecule": "CCN1CCC[C@H]1CNC(=O)c1c(O)c(Cl)cc(Cl)c1OC", "note": "[raclopride]", "values": [{"measurement": "affinity for this 5-HT receptor subtype (5-HT6)", "setting": "5-HT6 receptors", "result": "no relevant affinity"}]}
{"molecule": "C[C@@H]1CN(CCCn2c3ccccc3c3ccccc32)C[C@H](C)N1", "note": "[rimcazole]", "values": [{"measurement": "affinity for this 5-HT receptor subtype (5-HT6)", "setting": "5-HT6 receptors", "result": "no relevant affinity"}]}
{"molecule": "CC(C)CC(N(C)C)C1(c2ccc(Cl)cc2)CCC1", "note": "(stereo not shown) [sibutramine]", "values": [{"measurement": "body weight compared with the vehicle-treated controls", "setting": "[4]", "result": "significant body weight-loss"}, {"measurement": "daily food intake", "setting": "[4]", "result": "significant reduction of food intake"}, {"measurement": "days on which the decreases of food intake were statistically significant versus the vehicle-treated control group", "setting": "[4]", "result": "Day 1 to Day 5"}, {"measurement": "weighed less than the vehicle-treated controls", "setting": "[4]", "result": 10.8, "unit": "%"}, {"measurement": "weight reductions", "setting": "[4]", "result": "greater than 10%"}, {"measurement": "effect on the weight-gain evoked by olanzapine", "setting": "[5]", "result": "only partially to attenuate the weight-gain"}]}
{"molecule": "COc1cc(Cl)cc(C(C)Nc2cc(N3CCNCC3)ccc2S(C)(=O)=O)c1OC.Cl", "note": "(stereo not shown) [PRX-07034]", "values": [{"measurement": "food intake and body weight in obese rodents", "setting": "[6]", "result": "reduce food intake and produce sustained weight-loss"}]}
{"molecule": "Cc1cc2c(s1)Nc1ccccc1N=C2N1CCN(C)CC1", "note": "[Olanzapine]", "values": [{"measurement": "Mean body weight (g) Day 15", "setting": "[2]; COMPOUND 1 30 mg/kg po bid", "result": "333.0 ± 8.2", "unit": "g"}, {"measurement": "Mean body weight (g) Day 0", "setting": "[2]; COMPOUND 1 30 mg/kg po bid", "result": "296.9 ± 7.2", "unit": "g"}]}
{"molecule": "OC1(c2ccc(Cl)c(C(F)(F)F)c2)CCN(CCCC(c2ccc(F)cc2)c2ccc(F)cc2)CC1", "note": "[penfluridol]", "values": [{"measurement": "affinity for this 5-HT receptor subtype (5-HT6)", "setting": "5-HT6 receptors", "result": "no relevant affinity"}]}
